Laboratory results published in the supplement of paper PMC10307832.

Tests used:
Experiment in all cases: relative viability (nuclei count vs DMSO), 5 days (fraction); higher = more cells survive
[1] = compound: COc1cc2/c(=N/c3ccc(Br)cc3F)nc[nH]c2cc1OCC1CCN(C)CC1 [Vandetanib] + Cc1cc(Nc2cc(N3CCN(C)CC3)nc(Sc3ccc(NC(=O)C4CC4)cc3)n2)n[nH]1 [Tozasertib] (partner 0.1 µM)
Method in brief: (§1)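 Lung cancer cell lines in 1536-well plates got either a single drug or a fixed anchor-drug dose together with five library-drug doses (not always all listed) in √10 steps, by pin tool, on the day after seeding. Nuclei were counted after 5 days, and relative viability is the treated-to-vehicle ratio of nuclei counts. Values are medians of duplicate plates.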

[2] = compound: C1=CC=C2C(=C1)N=C(S2)C(C#N)C3=NC(=NC=C3)NCCC4=CN=CC=C4 + C[C@]1(O)C[C@@H](c2nc(-c3ccc4ccc(-c5ccccc5)nc4c3)c3c(N)nccn32)C1 [Linsitinib] (partner 1 µM)
Method in brief: as §1

[3] = compound: COc1cc(N2CCC(N3CCN(C)CC3)CC2)ccc1Nc1ncc(Cl)c(Nc2ccccc2S(=O)(=O)C(C)C)n1 [NVP-TAE684] + C[C@@H](Oc1cc(-c2cnn(C3CCNCC3)c2)cnc1N)c1c(Cl)ccc(F)c1Cl [Crizotinib] (partner 1 µM)
Method in brief: as §1

[4] = compound: C#Cc1cccc(Nc2ncnc3cc(OC)c(OCCCCCCC(=O)NO)cc23)c1 [CUDC-101] + CC1(C)CCC(c2ccc(Cl)cc2)=C(CN2CCN(c3ccc(C(=O)NS(=O)(=O)c4ccc(N[C@H](CCN5CCOCC5)CSc5ccccc5)c(S(=O)(=O)C(F)(F)F)c4)cc3)CC2)C1 [Navitoclax] (partner 0.5 µM)
Method in brief: as §1

Cell Line | relative viability ([1]; first compound 0.02 µM) | relative viability ([1]; first compound 0.06325 µM) | relative viability ([1]; first compound 0.2 µM) | relative viability ([1]; first compound 0.6325 µM) | relative viability ([1]; first compound 2 µM) | relative viability ([2]; first compound 0.005 µM) | relative viability ([2]; first compound 0.01581 µM) | relative viability ([2]; first compound 0.05 µM) | relative viability ([2]; first compound 0.1581 µM) | relative viability ([2]; first compound 0.5 µM) | relative viability ([3]; first compound 0.2 µM) | relative viability ([3]; first compound 0.6325 µM) | relative viability ([3]; first compound 2 µM) | relative viability ([4]; first compound 0.01 µM) | relative viability ([4]; first compound 0.03162 µM) | relative viability ([4]; first compound 0.1 µM) | relative viability ([4]; first compound 0.3162 µM) | relative viability ([4]; first compound 1 µM)
201T | 0.927 | 0.992 | 1.01 | 0.92 | 0.938 | 1.07 | 1.01 | 1.06 | 1.06 | 0.974 | 0.972 | 1.01 | 0.889 | 1.18 | 1.17 | 1.16 | 1.2 | 1.21
A549 |  |  |  |  |  | 0.476 | 0.684 | 0.549 | 0.661 | 0.595 | 0.709 | 0.458 | 0.0727 | 1.34 | 1.12 | 1.19 | 1.2 | 1.15
A-427 | 0.215 | 0.248 | 0.219 | 0.155 | 0.223 | 1.05 | 1.12 | 1.11 | 1.17 | 1.13 |  |  | 0.512 | 0.978 | 0.919 | 0.939 | 0.926 | 0.924
ABC-1 | 0.177 | 0.173 | 0.189 | 0.183 | 0.117 | 0.979 | 0.887 | 1.01 | 0.962 | 0.601 | 1.06 | 0.893 | 0.296 |  |  |  |  | 
BEN | 0.582 | 0.464 | 0.521 | 0.462 | 0.452 | 0.6 | 0.953 | 0.885 | 0.973 | 0.74 | 0.713 | 0.837 | 0.678 | 0.0901 | 0.0957 | 0.427 | 0.137 | 0.0346
CAL-12T | 0.346 | 0.314 | 0.148 | 0.249 | 0.278 | 0.76 | 0.781 | 0.671 | 0.991 | 0.839 | 0.63 | 0.444 | 0.282 | 1.22 | 1.23 | 1.28 | 1.35 | 1.33
COR-L23 | 0.189 | 0.241 | 0.218 | 0.223 | 0.222 | 0.483 | 1.14 | 1.01 | 1.06 | 0.682 | 0.536 | 0.69 | 0.238 | 1.08 | 1.07 | 0.907 | 1.09 | 0.444
COR-L 105 | 0.331 | 0.355 | 0.223 | 0.317 | 0.286 | 0.956 | 1.04 | 1.11 | 1.11 | 0.992 | 0.677 | 0.461 | 0.388 | 0.866 | 0.755 | 0.739 | 0.64 | 0.264
Calu-6 |  |  |  |  |  | 0.884 | 0.982 | 0.89 | 1.07 | 0.914 | 0.73 | 0.687 | 0.285 | 0.93 | 1.1 | 0.848 | 0.82 | 0.624
